32 molecules from patent publication US11518764B2, “Substituted heteroaryls as inhibitors of the BCL6 BTB domain protein-protein interaction” (Ontario Institute for Cancer Research (OICR), priority 2018, dated 2022) can be followed below.

One assay has as its target BCL6 BTB domain (Homo sapiens (Human), UniProt P41182). Briefly: Surface plasmon resonance (SPR) assay. Type of assay: binding. The conditions noted are these: BCL6 BTB domain captured on SA chip, single cycle kinetics.
Assay [1] relates to BCL6 reporter construct (3xBCL6-TK-Luc) in SuDHL4 cells. The assay can be described thus: Cell-based luciferase assay. The following applies: Homo sapiens, SU-DHL-4, 48 h, read-out: Luciferase-Assay EC50, uM), SuDHL4-3xBCL6-TK-Luc cells, two days, high dose 10 uM. In outline:
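SuDHL4 cells stably carrying a 3×BCL6-site TK-promoter firefly luciferase reporter, seeded at 15,000 cells/well, were dosed over a 10-point range (top 10 uM) and grown two days at 37 °C, 5% CO2. Luminescence then read after adding neolite reagent at room temperature.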

For the next assay, the system named is Karpas422 cells. The assay can be described thus: Tumor cell growth inhibition assay. Type of assay: cell-based. The conditions noted are these: Homo sapiens, KARPAS-422, 144 h, read-out: Tumor Growth Inhibition in Karpas-422 (IC50, uM), Karpas422 cells, six days, ATPlite. The essentials:
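Karpas422 cells (2,000/well) in Alpha-MEM with 10% FBS dosed across 10 concentrations (top 5 uM) and grown six days at 37° C., 5% CO2. Viability read as ATPlite luminescence.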

Molecule `COCCN1CCN(c2cc(NC(=O)Cn3cc(-c4cc(Cl)c(O)c(C(N)=O)c4)c4c(=O)n(C)cnc43)c(Cl)cn2)[C@@H](C)C1` [Compound I-415] yielded an equilibrium dissociation constant (Kd) at BCL6 BTB domain of 5.95 nM. Further, the EC50 in assay [1] amounted to 0.0872 µM. For the same molecule, the IC50 in the assay with Karpas422 cells turned out to be 0.122 µM.
Molecule `COCCN1CCN(c2cc(NC(=O)Cn3cc(-c4cc(F)c(O)c(C(N)=O)c4)c4c(=O)n(C)cnc43)c(Cl)cn2)[C@@H](C)C1` [Compound I-416] gave a Kd on BCL6 BTB domain of 2.73 nM. Besides, in assay [1], the EC50 is 0.0787 µM. In addition, the IC50 in the assay with Karpas422 cells was found to be 0.0592 µM.
For `Cn1cnc2c(c(-c3cc(C(N)=O)c(O)c(F)c3F)cn2CC(=O)Nc2cc(N3CCCC3)nc(F)c2Cl)c1=O` [Compound I-417] the same measures were 21.7 nM, 0.478 µM and 0.441 µM.
On BCL6 BTB domain, `Cn1cnc2c(c(-c3cc(Cl)c(O)c(C(N)=O)c3)cn2CC(=O)Nc2cc(N3CCCC3)nc(F)c2Cl)c1=O` [Compound I-418] gave a Kd of 22.1 nM. Moreover, in assay [1], the EC50 came out at 0.663 µM. Also, in the assay on Karpas422 cells, the IC50 was found to be 0.303 µM.
For `Cn1cnc2c(c(-c3cc(F)c(O)c(C(N)=O)c3)cn2CC(=O)Nc2cc(N3CCCC3)nc(F)c2Cl)c1=O` [Compound I-419] the same measures were 5.85 nM, 0.348 µM and 0.22 µM.
For `CN(C)c1cc(NC(=O)Cn2cc(-c3cc(C(N)=O)c(O)c(F)c3F)c3c(=O)n(C)cnc32)c(Cl)c(F)n1` [Compound I-420] the same measures were 16.3 nM, 0.429 µM and 0.383 µM.
In turn, `CN(C)c1cc(NC(=O)Cn2cc(-c3cc(Cl)c(O)c(C(N)=O)c3)c3c(=O)n(C)cnc32)c(Cl)c(F)n1` [Compound I-421] yielded a dissociation constant (Kd) at BCL6 BTB domain of 14.7 nM. Further, the EC50 in assay [1] was found to be 0.154 µM. For the same molecule, in the assay on Karpas422 cells, the IC50 is 0.154 µM.
With `CN(C)c1cc(NC(=O)Cn2cc(-c3cc(F)c(O)c(C(N)=O)c3)c3c(=O)n(C)cnc32)c(Cl)c(F)n1` [Compound I-423], on BCL6 BTB domain, the dissociation constant Kd worked out at 5.06 nM. The half-maximal effective concentration (EC50) in assay [1] is 0.143 µM. The half-maximal inhibitory concentration (IC50) in the assay with Karpas422 cells was determined as 0.0391 µM.
In the same order, the values of `C[C@@H](C1CC1)N1CCN(c2cc(NC(=O)Cn3cc(-c4cc(C(N)=O)c(O)c(F)c4F)c4c(=O)n(C)cnc43)c(Cl)cn2)[C@@H](C)C1` [Compound I-424] are 26.1 nM, 0.309 µM and 0.157 µM.
In the same order, the values of `C[C@H](C1CC1)N1CCN(c2cc(NC(=O)Cn3cc(-c4cc(C(N)=O)c(O)c(F)c4F)c4c(=O)n(C)cnc43)c(Cl)cn2)[C@@H](C)C1` [Compound I-425] are 44.7 nM, 0.629 µM and 0.624 µM.
In the same order, the values of `CCN1CCN(c2cc(NC(=O)Cn3cc(-c4cc(C(N)=O)c(O)c(F)c4F)c4c(=O)n(C)cnc43)c(Cl)c(F)n2)[C@@H](C)C1` [Compound I-426] are 17.7 nM, 0.226 µM and 0.128 µM.
As for `CCN1CCN(c2cc(NC(=O)Cn3cc(-c4cc(Cl)c(O)c(C(N)=O)c4)c4c(=O)n(C)cnc43)c(Cl)c(F)n2)[C@@H](C)C1` [Compound I-427], the Kd at BCL6 BTB domain is 13.8 nM. The EC50 in assay [1] is 0.156 µM. Moreover, the IC50 in the assay on Karpas422 cells was 0.114 µM.
`CCN1CCN(c2cc(NC(=O)Cn3cc(-c4cc(F)c(O)c(C(N)=O)c4)c4c(=O)n(C)cnc43)c(Cl)c(F)n2)[C@@H](C)C1` [Compound I-428]: on BCL6 BTB domain, the affinity, expressed as Kd, was 2.35 nM. For the same molecule, the concentration for a half-maximal effect (EC50) in assay [1] was 0.102 µM. Further, in the assay on Karpas422 cells, the IC50 stood at 0.0682 µM.
For `Cc1nc2c(c(-c3cc(C(N)=O)c(O)c(F)c3F)cn2CC(=O)Nc2cc(N3CCN(C4COC4)C[C@@H]3C)nc(F)c2Cl)c(=O)n1C` [Compound I-429] the same measures were 10.9 nM, 0.162 µM and 0.154 µM.
In the same order, the values of `C[C@H]1CN(C)CCN1c1cc(NC(=O)Cn2cc(-c3cc(F)c(O)c(C(N)=O)c3)c3c(=O)n(CCC(=O)c4cnn(C)c4)cnc32)c(Cl)c(F)n1` [Compound I-430, (S)-5-(7-(2-((3-chloro-6-(2,4-dimethylpiperazin-1-yl)-2-fluoropyridin-4-yl)amino)-2-oxoethyl)-3-(3-(1-methyl-1H-pyrazol-4-yl)-3-oxopropyl)-4-oxo-4,7-dihydro-3H-pyrrolo[2,3-d]pyrimidin-5-yl)-3-fluoro-2-hydroxybenzamide] are 23.2 nM, 0.622 µM and 0.38 µM.
For `CCN1CCN(c2cc(NC(=O)Cn3cc(-c4cc(Cl)c(O)c(C(N)=O)c4)c4c(=O)n(C)c(C)nc43)c(Cl)cn2)[C@@H](C)C1` [Compound I-431] the same measures were 30.7 nM, 0.193 µM and 0.175 µM.
`C[C@H]1CN(C)CCN1c1cc(NC(=O)Cn2cc(-c3cc(F)c(O)c(C(N)=O)c3)c3c(=O)n(CC#Cc4cnn(C)c4)cnc32)c(Cl)c(F)n1` [Compound I-432, (S)-5-(7-(2-((3-chloro-6-(2,4-dimethylpiperazin-1-yl)-2-fluoropyridin-4-yl)amino)-2-oxoethyl)-3-(3-(1-methyl-1H-pyrazol-4-yl)prop-2-yn-1-yl)-4-oxo-4,7-dihydro-3H-pyrrolo[2,3-d]pyrimidin-5-yl)-3-fluoro-2-hydroxybenzamide] had a Kd at BCL6 BTB domain of 2.39 nM. Further, in assay [1], the concentration for a half-maximal effect (EC50) came to 0.0347 µM. Besides, the IC50 with Karpas422 cells turned out to be 0.0181 µM.
In the same order, the values of `CN(C)C1CN(c2cc(NC(=O)Cn3cc(-c4cc(F)c(O)c(C(N)=O)c4)c4c(=O)n(C)cnc43)c(Cl)cn2)C1` [Compound I-433] are 8.42 nM, 0.548 µM and 0.201 µM.
For the molecule `Cc1nc2c(c(-c3cc(Cl)c(O)c(C(N)=O)c3)cn2CC(=O)Nc2cc(N3CCN(C4COC4)C[C@@H]3C)nc(F)c2Cl)c(=O)n1C` [Compound I-434], binding at BCL6 BTB domain was put at a Kd of 5.45 nM. Also, the 50% effective concentration (EC50) in assay [1] was found to be 0.0381 µM. For the same molecule, the IC50 in the assay on Karpas422 cells was determined as 0.05 µM.
For `CCN1CCN(c2cc(NC(=O)Cn3cc(-c4cc(C(N)=O)c(O)c(F)c4F)c4c(=O)n(C)c(C)nc43)c(Cl)cn2)[C@@H](C)C1` [Compound I-435] the same measures were 48.9 nM, 0.847 µM and 0.415 µM.
For `Cn1cnc2c(c(-c3cc(F)c(O)c(C(N)=O)c3)cn2CC(=O)Nc2cc(N3C4CCC3COC4)ncc2Cl)c1=O` [Compound I-436], on BCL6 BTB domain, the Kd amounted to 14.1 nM. Besides, the concentration giving a half-maximal response (EC50) in assay [1] was 0.803 µM. In the assay on Karpas422 cells, the IC50 came out at 0.401 µM.
Turning to `C[C@H]1CN(C2COC2)CCN1c1cc(NC(=O)Cn2cc(-c3cc(C(N)=O)c(O)c(F)c3F)c3c(=O)n(C)cnc32)c(Cl)c(F)n1` [Compound I-437], the Kd on BCL6 BTB domain stood at 11.3 nM. For the same molecule, the concentration for a half-maximal effect (EC50) in assay [1] was 0.231 µM. Further, the 50% inhibitory concentration (IC50) with Karpas422 cells came to 0.124 µM.
Molecule `C[C@H]1CN(C2COC2)CCN1c1cc(NC(=O)Cn2cc(-c3cc(F)c(O)c(C(N)=O)c3)c3c(=O)n(C)cnc32)c(Cl)c(F)n1` [Compound I-438] displayed an equilibrium dissociation constant (Kd) on BCL6 BTB domain of 2.5 nM. Besides, in assay [1], the EC50 is 0.0686 µM. Moreover, in the assay with Karpas422 cells, the half-maximal inhibitory concentration (IC50) was 0.0508 µM.
On BCL6 BTB domain, `CO[C@H]1CC(c2cc(NC(=O)Cn3cc(-c4cc(Cl)c(O)c(C(N)=O)c4)c4c(=O)n(C)cnc43)c(Cl)c(F)n2)C[C@H]1F` (stereo partly drawn) [Compound I-439] registered a dissociation constant Kd of 32.9 nM. In addition, the concentration for a half-maximal effect (EC50) in assay [1] came out at 0.267 µM. The IC50 in the assay on Karpas422 cells worked out at 0.28 µM.
For `CO[C@@H]1CC(c2cc(NC(=O)Cn3cc(-c4cc(Cl)c(O)c(C(N)=O)c4)c4c(=O)n(C)cnc43)c(Cl)c(F)n2)C[C@@H]1F` (stereo partly drawn) [Compound I-440] the same measures were 15.8 nM, 0.286 µM and 0.291 µM.
On BCL6 BTB domain, `CO[C@H]1CN(c2cc(NC(=O)Cn3cc(-c4cc(C(N)=O)c(O)c(F)c4F)c4c(=O)n(C)cnc43)c(Cl)c(F)n2)C[C@H]1F` [Compound I-441] had a Kd of 22.3 nM. In assay [1], the EC50 is 0.324 µM. The half-maximal inhibitory concentration (IC50) with Karpas422 cells turned out to be 0.338 µM.
In the same order, the values of `CO[C@@H]1CN(c2cc(NC(=O)Cn3cc(-c4cc(C(N)=O)c(O)c(F)c4F)c4c(=O)n(C)cnc43)c(Cl)c(F)n2)C[C@@H]1F` [Compound I-442] are 21.8 nM, 0.386 µM and 0.266 µM.
For `C[C@H]1CN(CC2CC2)CCN1c1cc(NC(=O)Cn2cc(-c3cc(C(N)=O)c(O)c(F)c3F)c3c(=O)n(C)cnc32)c(Cl)c(F)n1` [Compound I-443] the same measures were 18.6 nM, 0.285 µM and 0.149 µM.
For `C[C@H]1CN(CC2CC2)CCN1c1cc(NC(=O)Cn2cc(-c3cc(Cl)c(O)c(C(N)=O)c3)c3c(=O)n(C)cnc32)c(Cl)c(F)n1` [Compound I-444] the same measures were 19.8 nM, 0.239 µM and 0.104 µM.
`C[C@H]1CN(CC2CC2)CCN1c1cc(NC(=O)Cn2cc(-c3cc(F)c(O)c(C(N)=O)c3)c3c(=O)n(C)cnc32)c(Cl)c(F)n1` [Compound I-445] came in with a dissociation constant (Kd) at BCL6 BTB domain of 7.32 nM. In addition, in assay [1], the EC50 stood at 0.0854 µM. Also, the IC50 in the assay on Karpas422 cells was found to be 0.0622 µM.
In the same order, the values of `COCCN1CCN(c2cc(NC(=O)Cn3cc(-c4cc(C(N)=O)c(O)c(F)c4F)c4c(=O)n(C)cnc43)c(Cl)c(F)n2)[C@@H](C)C1` [Compound I-446] are 7.29 nM, 0.157 µM and 0.137 µM.
In turn, `COCCN1CCN(c2cc(NC(=O)Cn3cc(-c4cc(Cl)c(O)c(C(N)=O)c4)c4c(=O)n(C)cnc43)c(Cl)c(F)n2)[C@@H](C)C1` [Compound I-447] came in with a Kd on BCL6 BTB domain of 9.02 nM. Besides, the 50% effective concentration (EC50) in assay [1] was 0.113 µM. Further, the concentration for half-maximal inhibition (IC50) in the assay with Karpas422 cells stood at 0.0709 µM.

Broadly, the Kd is the free concentration of one partner at which half of the binding sites on the other are occupied at equilibrium, for simple one-to-one binding. Low readings indicate a tighter complex, high ones a looser complex. The term EC50 denotes the concentration at which the effect is half-maximal. As a reminder, the IC50 is the concentration that inhibits the measured activity by half.
